On to `COc1cc(C(=O)N2CCC(N3CCC(Oc4ccc(Cl)cc4C)CC3)CC2)ccc1N.O=C(O)C(F)(F)F.O=C(O)C(F)(F)F`, for which the melting point (as a rule, the temperature, or range, at which the solid turns liquid) lay in the range of 110 to 111 °C.

On to `CC(=O)O.COc1cc(C(=O)N2CCC(N3CCC(Oc4ccc(Cl)c(Cl)c4)CC3)CC2)ccc1N`, for which the melting point fell in the range of 181 to 182 °C.

In turn, `CS(=O)(=O)c1cccc(C(=O)N2CCC(N3CCC(Oc4ccc(C(F)(F)F)cc4C#N)CC3)CC2)c1.O=C(O)C(F)(F)F` gave a melting point of 140 to 142 °C.

In turn, `Cc1cccc(OC2CCN(C3CCN(C(=O)c4cccc(S(C)(=O)=O)c4)CC3)CC2)n1.O=C(O)C(F)(F)F` returned a melting point of 94 to 95 °C.

On to `CS(=O)(=O)n1cc(C(=O)N2CCC(N3CCC(Oc4ccc(Cl)c(Cl)c4)CC3)CC2)c2ccccc21.Cl`, for which the melting point was 104 to 105 °C.

In turn, `CC(=O)O.CS(=O)(=O)c1cccc(C(=O)N2CCC(N3CCC(Oc4ccc(Cl)c(Cl)c4)CC3)CC2)c1` returned a melting point of 111 to 112 °C.

`Cc1cc(Cl)ccc1OC1CCN(C2CCN(C(=O)c3cccc(S(C)(=O)=O)c3)CC2)CC1` [Compound 1 of Table IV, [4-(4-chloro-2-methyl-phenoxy)-[1,4′]bipiperidinyl-1′-yl]-(3-methanesulfonyl-phenyl)-methanone]: the melting point was 64 to 65 °C.

`O=S(=O)(c1ccc(-c2ccccn2)s1)N1CCC(N2CCC(Oc3ccc(F)c(F)c3)CC2)CC1` [Compound 3 of Table II, 4-(3,4-difluoro-phenoxy)-1′-(5-pyridin-2-yl-thiophene-2-sulfonyl)-[1,4′]bipiperidinyl] returned a melting point of 126 to 127 °C.

As for `CS(=O)(=O)c1cccc(NC(=O)N2CCC(N3CCC(Oc4ccc(Cl)c(Cl)c4)CC3)CC2)c1` [Compound 54 of Table IV, 4-(3,4-dichloro-phenoxy)-[1,4′]bipiperidinyl-1′-carboxylic acid (3-methanesulfonyl-phenyl)-amide], the melting point fell in the range of 73 to 75 °C.

`O=S(=O)(c1ccc(-c2ccccn2)s1)N1CCC(N2CCC(Oc3ccc(Cl)c(Cl)c3)CC2)CC1` [Compound 280 of Table I, 4-(3,4-dichloro-phenoxy)-1′-(5-pyridin-2-yl-thiophene-2-sulfonyl)-[1,4′]bipiperidinyl]: the melting point fell in the range of 149 to 150 °C.

Compound `CS(=O)(=O)c1ccccc1C(=O)N1CCC(N2CCC(Oc3ccc(Cl)c(Cl)c3)CC2)CC1` [Compound 293 of Table I, [4-(3,4-dichloro-phenoxy)-[1,4′]bipiperidinyl-1′-yl]-(2-methanesulfonyl-phenyl)-methanone] had a melting point of 78 to 80 °C.

`O=C(Nc1ccccc1)N1CCC(N2CCC(Oc3ccc(Cl)c(Cl)c3)CC2)CC1` [Compound 309 of Table IV, 4-(3,4-dichloro-phenoxy)-[1,4′]bipiperidinyl-1′-carboxylic acid phenylamide] displayed a melting point of 111 to 112 °C.

`CS(=O)(=O)c1ccc(C(=O)N2CCC(N3CCC(Oc4ccc(Cl)c(Cl)c4)CC3)CC2)s1` [Compound 332 of Table I, [4-(3,4-dichloro-phenoxy)-[1,4′]bipiperidinyl-1′-yl]-(2-methanesulfonyl-thiophen-5-yl)-methanone]: the melting point fell in the range of 82 to 83 °C.

On to `CCn1cc(C(=O)N2CCC(N3CCC(Oc4ccc(Cl)c(Cl)c4)CC3)CC2)c(=O)c2ccc(C)nc21` [Compound 534 of Table I, 3-[4-(3,4-dichloro-phenoxy)-[1,4′]bipiperidinyl-1′-carbonyl]-1-ethyl-7-methyl-1H-[1,8]naphthyridin-4-one], for which the melting point lay in the range of 189 to 190 °C.

In turn, `CS(=O)(=O)Nc1cccc(C(=O)N2CCC(N3CCC(Oc4ccc(Cl)c(Cl)c4)CC3)CC2)c1` [Compound 583 of Table I, N-{3-[4-(3,4-dichloro-phenoxy)-[1,4′]bipiperidinyl-1′-carbonyl]-phenyl}-methanesulfonamide] returned a melting point of 150 to 152 °C.

Compound `CS(=O)(=O)Nc1ccccc1C(=O)N1CCC(N2CCC(Oc3ccc(Cl)c(Cl)c3)CC2)CC1` [Compound 587 of Table I, N-{2-[4-(3,4-dichloro-phenoxy)-[1,4′]bipiperidinyl-1′-carbonyl]-phenyl}-methanesulfonamide] yielded a melting point of 219 to 220 °C.

Consider `O=C(C(CN1CCNCC1)c1ccccc1)N1CCC(N2CCC(Oc3ccc(Cl)c(Cl)c3)CC2)CC1` (centres unmarked) [Compound 595 of Table I, 1-[4-(3,4-dichloro-phenoxy)-[1,4′]bipiperidinyl-1′-yl]-2-phenyl-3-piperazin-1-yl-propan-1-one], for which the melting point lay within 76 to 77 °C.

The values are drawn from US6525070B2, “Bipiperidine derivatives as modulators of CCR3 activity and as H1 antagonists” (AstraZeneca AB, priority 2000, dated 2003).
